{
  "source": "patent US7229635B2",
  "about": "“Pharmacotherapeutic process and composition for central nervous system disorders” (Indiana University Research and Technology Corporation, priority 2000, dated 2007)",
  "key": {"[1]": {"test_system": "kindled seizures (amygdala)", "conditions": "delivery of about 10^−6 to about 10^−12 M TRH to the brain; Example 3 and Chepournova et al.; cited from earlier work"}, "rat hippocampal slices": {"test_system": "rat hippocampal slices", "assay": "50 mM [K+]-stimulated glutamate release from superfused hippocampal slices", "assay_type": "cell-based", "conditions": "for glutamate at 10 min. post stimulation: control 4.37±1.29, p<0.05; for peak 50 mM [K+]-stimulated glutamate release: control 48.05±8.59, p<0.001", "method": "Enhanced excitatory amino acid release is suspected in pathways associated with seizures and excitotoxicity. In this regard, superfused hippocampal slices were used to investigate whether TRH could inhibit glutamate release in vitro. Rat hippocampi were removed and sliced transversely (500/μm) under low magnification. Slices were weighed, washed in cold saline, transferred to individual tissue chambers floated in a 37°/C. water bath, and were equilibrated in oxygenated (95% O2/5% CO2) Kreb's buffer (KRB) at 37° C. for 120 min. (0.5 ml/min). Slice chambers were then superfused 10 min. with KRB (control), or KRB containing 10 μM, 1 μM, or 0.1 μM TRH, respectively, prior to 5 min. stimulation with modified KRB (50 mM [K^+]±TRH). Fractions (1 min.) were collected during the 5 min. stimulation and for an additional 10 min. (0.5 ml/min.) thereafter, and analyzed for glutamate by HPLC."}, "Gαq/11 G-proteins": {"test_system": "Gαq/11 G-proteins", "conditions": "sustained TRH exposure to its receptor; cited from earlier work"}},
  "data": [
    {"smiles": "NC(=O)[C@@H]1CCCN1C(=O)[C@H](Cc1cnc[nH]1)NC(=O)[C@@H]1CCC(=O)N1", "note": "[TRH, Thyrotropin-releasing hormone]", "values": [
      {"measurement": "effect in kindling studies", "setting": "[1]", "result": "anticonvulsant"},
      {"measurement": "glutamate at 10 min. post stimulation", "setting": "rat hippocampal slices; 0.1 μM TRH", "result": "1.54±0.43", "unit": "μMg/fraction"},
      {"measurement": "peak 50 mM [K+]-stimulated glutamate release", "setting": "rat hippocampal slices; 0.1 μM TRH", "result": "1.38±0.28", "unit": "μMg/fraction"},
      {"measurement": "glutamate at 10 min. post stimulation", "setting": "rat hippocampal slices; 1 μM TRH", "result": "1.11±0.26", "unit": "μMg/fraction"},
      {"measurement": "peak 50 mM [K+]-stimulated glutamate release", "setting": "rat hippocampal slices; 1 μM TRH", "result": "1.54±0.33", "unit": "μMg/fraction"},
      {"measurement": "glutamate at 10 min. post stimulation", "setting": "rat hippocampal slices; 10 μM TRH", "result": "1.35±0.48", "unit": "μMg/fraction"},
      {"measurement": "peak 50 mM [K+]-stimulated glutamate release", "setting": "rat hippocampal slices; 10 μM TRH", "result": "2.35±0.50", "unit": "μMg/fraction"},
      {"measurement": "effect on glutamate release by 50 mM [K+] stimulation given 15 min. later", "setting": "rat hippocampal slices; perfusion (5 min.) with KRB+10 μM TRH, FIG. 6", "result": "significantly (p<0.05) blocked glutamate release"},
      {"measurement": "reduction of Gαq/11 G-proteins", "setting": "Gαq/11 G-proteins", "result": "20-70%"}
    ]}
  ]
}
